Measurements taken from US6555356B2, “Methods for microbial regulation” (Unisearch Limited, priority 1995, dated 2003).
Values after ≈ are worked out from the molar mass of the structure shown. “Also recorded” adds a separate entry of the source.

Experiments:
Assay type in all cases: cell-based
Helminthosporium sp. = experiment: Fungal growth inhibition zone assay, Helminthosporium sp.
Experimental: (§1) In addition to the tests described above, the effects of selected compounds of the general formula 2 on growth of bacteria, one yeast (Candida albicans) and one fungus (Helminthosporium sp.) were assessed. Bacteria were grown in liquid media in the presence of different concentrations of furanones and growth measured via changes in optical density (OD). Fungal assays were done by inoculating agar plates with spores. These plates contained different concentrations of furanone compounds in wells within the plates. Zones of inhibition around these wells were measured after 48 hours.

Serratia liquefaciens [1] = experiment: Serratia liquefaciens exoprotease assay (skim milk agar clearing zones); settings: 100 μg/ml; for exoprotease activity of the wild type: Serratia liquefaciens wild type; for Effect on HSL phenotype: exoenzymes (exoprotease production): Serratia liquefaciens
Experimental: For assays of production of exoproteases by Serratia liquifaciens the bacteria were cultured as above and inoculated in liquid LB medium. The effects of furanone compounds were tested by adding compounds 3 and 4 (FIG. 3) at 100 μg/ml. Aliquots were withdrawn from the cultures, centrifuged and sterile filtered. Sixty microliters of supernatant were added to wells in skim milk agar plates (1.5% skim milk in M9 medium). Plates were incubated at room temperature and observed for clearing zones around the wells.

strain V21 [2] = experiment: Marine isolate growth in liquid media, strain V21
Experimental: (§2) The effect on growth of Serratia liquefaciens by furanone compounds was also measured in liquid LB medium by comparing growth of cultures without the addition of compounds versus growth of cultures with added furanone compounds (100 μg/ml of compounds 1-13 (FIG. 3) in separate cultures). Growth was measured as optical density at 450 nm and followed over a 48 hr period.
(§3) Methods followed those described for Serratia liquefaciens (above). Inhibition of growth of these bacteria by furanones was assessed as above.

strain R86 [3] = experiment: Marine isolate swarming, strain R86
Experimental: (§4) Serratia liquefaciens was grown in liquid LB medium at room temperature to an optical density of 0.3 at 450 nm and stable inoculated onto LB agar (0.7% agar) plates. Plates were incubated at 30° C. and observed regularly for swarming behaviour. The effect on swarming of furanone compounds was tested by adding (after sterilisation and cooling of the agar) compounds 1-13 (FIG. 3). in the concentration range of 5-100 μg/ml, to the plates.
as §3

strain R12 [4] = experiment: Marine isolate growth in liquid media, strain R12
Experimental: as §2, §3

strain V54 [5] = experiment: Marine isolate growth in liquid media, strain V54
Experimental: as §2, §3

strain R130 [6] = experiment: Marine isolate swimming, strain R130
Vibrio fisheri [7] = experiment: Vibrio fisheri bioluminescence assay; settings: 100 μg/ml, visual inspection of agar plates
Experimental: (§5) Initial assays for both strains of Vibrio were streaked onto LB agar plates (with 2% NaCl) with and without furanone compounds 1-4 at 5-100 μg/ml. Bioluminescence of the plates was visually assessed after 24 hours of incubation at room temperature. In subsequent assays, both strains were grown in liquid culture in the presence of furanones. Bioluminescence was assayed via a luminometer. The effects of furanones on growth of both strains were assayed as above.

strain R12 [8] = experiment: Marine isolate swimming, strain R12
strain V54 [9] = experiment: Marine isolate swarming, strain V54
Experimental: as §4, §3

strain V54 [10] = experiment: Marine isolate swimming, strain V54
Candida albicans = experiment: Fungal growth inhibition zone assay, Candida albicans
Experimental: as §1

Pseudomonas aeruginosa [11] = experiment: Pseudomonas aeruginosa (elastase) assay; settings: 100 μg/ml in elastin agar
Experimental: (§6) Inoculants from precultures were streaked onto Peptone-Tryptic Soy Broth agar containing 0.3% elastin. Plates were incubated at 37° C. and observed for hydrolysis of the elastin. The effect of furanone compounds was assess by adding compounds 1-4 (100 μg/ml) to the plates and comparing zones of hydrolysis in plates with and without the compounds.

Serratia liquefaciens [12] = experiment: Growth of Serratia liquefaciens in liquid LB medium; settings: 100 μg/ml
Experimental: as §2

Vibrio fisheri [13] = experiment: Growth of Vibrio fisheri
Experimental: as §2, §5

strain V21 [14] = experiment: Marine isolate swarming, strain V21
Experimental: as §4, §3

strain V55 [15] = experiment: Marine isolate growth in liquid media, strain V55
Experimental: as §2, §3

Serratia liquefaciens [16] = experiment: Serratia liquefaciens swarming assay; settings: 5-100 μg/ml in LB agar (0.7%) plates
Experimental: as §4

strain R86 [17] = experiment: Marine isolate swimming, strain R86
Erwinia carotovora [18] = experiment: Erwinia carotovora (exoenzyme) assay on potato slices
Experimental: Inoculants from precultured E. carotovora were added to slices of potatoes. Degradation (softening and browning) of the potato was compared on slices with and without furanone compounds (3 and 4).

strain V55 [19] = experiment: Marine isolate swimming, strain V55
strain R86 [20] = experiment: Marine isolate growth in liquid media, strain R86
Experimental: as §2, §3

strain R130 [21] = experiment: Marine isolate growth in liquid media, strain R130
Experimental: as §2, §3

Vibrio harveyi [22] = experiment: Vibrio harveyi bioluminescence assay; settings: 100 μg/ml, visual inspection of agar plates
Experimental: as §5

Erwinia carotovora [23] = experiment: Growth of Erwinia carotovora
strain V55 [24] = experiment: Marine isolate swarming, strain V55
Experimental: as §4, §3

strain R130 [25] = experiment: Marine isolate swarming, strain R130
Experimental: as §4, §3

strain R12 [26] = experiment: Marine isolate swarming, strain R12
Experimental: as §4, §3

Vibrio harveyi [27] = experiment: Growth of Vibrio harveyi
Experimental: as §2, §5

Pseudomonas aeruginosa [28] = experiment: Growth of Pseudomonas aeruginosa on plates; settings: 100 μg/ml
Experimental: as §6

strain V21 [29] = experiment: Marine isolate swimming, strain V21
Proteus mirabilis [30] = experiment: Proteus mirabilis swarming assay; settings: LB10 with 1.5% agar
[31] = test system: Chromobacterium violencia; experiment: Growth of Chromobacterium violencia; settings: 100 μg/ml
Experimental: as §2
A mutant of Chromobacterium violencia negative for the HSL auto inducer was used in the assay. The strain was pour plated in LB medium at high density and wells were punched after the media had set. Sterile, filtered supernatants from various HSL producing strains were added to the wells. Plates were incubated at 30° C. and observed for the formation of purple zones (due to […]) around the wells. The effects of furanone compounds 1 and 2 (FIG. 3) were assessed by running this assay on plates of LB medium containing furanone compounds at a concentration of 100 μg/ml. The effects of the compounds on growth of Chromobacterium were assessed as above.

Proteus mirabilis [32] = experiment: Proteus mirabilis swimming; settings: concentrations inhibitory to swarming, LB10 with 0.3% agar
Proteus mirabilis [33] = experiment: Proteus mirabilis growth; settings: concentrations inhibitory to swarming, 37 C
Experimental: as §3

## CCCC(OC(C)=O)C1=C(Br)C(=CBr)OC1=O (stereo not shown) [Compound 3]
Helminthosporium sp.; amount added 0.1 μg
  width of inhibition zone: 0 mm
Helminthosporium sp.; amount added 1 μg
  width of inhibition zone: 0 mm
Helminthosporium sp.; amount added 10 μg
  width of inhibition zone: 6-9 mm
Helminthosporium sp.; amount added 100 μg
  width of inhibition zone: 6-20 mm
Serratia liquefaciens [1]
  exoprotease activity of the wild type: 3 and 4 decreases
  Effect on HSL phenotype: exoenzymes (exoprotease production): inhibit; also recorded: decrease/
Strain V21 [2]
  Minimum inhibitory concentration, Growth: 5 µg/mL (≈ 13.6 µM)
Strain R86 [3]
  Minimum inhibitory concentration, Swarming: 5 µg/mL (≈ 13.6 µM)
Strain R12 [4]
  Minimum inhibitory concentration, Growth: >50 µg/mL
Strain V54 [5]
  Minimum inhibitory concentration, Growth: 25 µg/mL (≈ 67.9 µM)
Strain R130 [6]
  Minimum inhibitory concentration, Swimming: >50 µg/mL
Vibrio fisheri [7]
  Effect on HSL phenotype: luminescence: inhibit
Strain R12 [8]
  Minimum inhibitory concentration, Swimming: 50 µg/mL (≈ 136 µM)
Strain V54 [9]
  Minimum inhibitory concentration, Swarming: 5 µg/mL (≈ 13.6 µM)
Strain V54 [10]
  Minimum inhibitory concentration, Swimming: 5 µg/mL (≈ 13.6 µM)
Candida albicans; amount added 0.1 μg
  width of inhibition zone: 0 mm
Candida albicans; amount added 1 μg
  width of inhibition zone: 0 mm
Candida albicans; amount added 10 μg
  width of inhibition zone: 1-2 mm
Candida albicans; amount added 100 μg
  width of inhibition zone: 2-3 mm
Pseudomonas aeruginosa [11]
  Effect on HSL phenotype: elastase: inhibited; also recorded: delay/
Serratia liquefaciens [12]
  Effect on bacterial growth: no effect
Vibrio fisheri [13]
  Effect on bacterial growth: no effect
Strain V21 [14]
  Minimum inhibitory concentration, Swarming: 5 µg/mL (≈ 13.6 µM)
Strain V55 [15]
  Minimum inhibitory concentration, Growth: 5 µg/mL (≈ 13.6 µM)
Serratia liquefaciens [16]
  Effect on HSL phenotype: swarming: inhibit
Strain R86 [17]
  Minimum inhibitory concentration, Swimming: >50 µg/mL
Erwinia carotovora [18]
  Effect on HSL phenotype: exoenzymes: no effect
Strain V55 [19]
  Minimum inhibitory concentration, Swimming: 5 µg/mL (≈ 13.6 µM)
Strain R86 [20]
  Minimum inhibitory concentration, Growth: >50 µg/mL
Strain R130 [21]
  Minimum inhibitory concentration, Growth: 25 µg/mL (≈ 67.9 µM)
Vibrio harveyi [22]
  Effect on HSL phenotype: luminescence: inhibit
Erwinia carotovora [23]
  Effect on bacterial growth: no effect
Strain V55 [24]
  Minimum inhibitory concentration, Swarming: 5 µg/mL (≈ 13.6 µM)
Strain R130 [25]
  Minimum inhibitory concentration, Swarming: 25 µg/mL (≈ 67.9 µM)
Strain R12 [26]
  Minimum inhibitory concentration, Swarming: 5 µg/mL (≈ 13.6 µM)
Vibrio harveyi [27]
  Effect on bacterial growth: no effect
Pseudomonas aeruginosa [28]
  Effect on bacterial growth: no effect
Strain V21 [29]
  Minimum inhibitory concentration, Swimming: 25 µg/mL (≈ 67.9 µM)

## CCCC(O)C1=C(Br)C(=CBr)OC1=O (stereo not shown) [Compound 4]
Serratia liquefaciens [1]
  exoprotease activity of the wild type: 3 and 4 decreases
  Effect on HSL phenotype: exoenzymes (exoprotease production): inhibit; also recorded: decrease/
Strain V21 [2]
  Minimum inhibitory concentration, Growth: 5 µg/mL (≈ 15.3 µM)
Strain R86 [3]
  Minimum inhibitory concentration, Swarming: 5 µg/mL (≈ 15.3 µM)
Strain R12 [4]
  Minimum inhibitory concentration, Growth: 25 µg/mL (≈ 76.7 µM)
Strain V54 [5]
  Minimum inhibitory concentration, Growth: 25 µg/mL (≈ 76.7 µM)
Strain R130 [6]
  Minimum inhibitory concentration, Swimming: 25 µg/mL (≈ 76.7 µM)
Strain R12 [8]
  Minimum inhibitory concentration, Swimming: 25 µg/mL (≈ 76.7 µM)
Proteus mirabilis [30]
  Effect on swarming: inhibited
Strain V54 [9]
  Minimum inhibitory concentration, Swarming: 5 µg/mL (≈ 15.3 µM)
Strain V54 [10]
  Minimum inhibitory concentration, Swimming: 5 µg/mL (≈ 15.3 µM)
Pseudomonas aeruginosa [11]
  Effect on HSL phenotype: elastase: inhibited; also recorded: delay/
[31]
  Effect on bacterial growth: inhibit
Proteus mirabilis [32]
  Effect on swimming: did not affect
Serratia liquefaciens [12]
  Effect on bacterial growth: no effect
Vibrio fisheri [13]
  Effect on bacterial growth: no effect
Strain V21 [14]
  Minimum inhibitory concentration, Swarming: 5 µg/mL (≈ 15.3 µM)
Strain V55 [15]
  Minimum inhibitory concentration, Growth: 25 µg/mL (≈ 76.7 µM)
Serratia liquefaciens [16]
  Effect on HSL phenotype: swarming: inhibit
Strain R86 [17]
  Minimum inhibitory concentration, Swimming: 25 µg/mL (≈ 76.7 µM)
Erwinia carotovora [18]
  Effect on HSL phenotype: exoenzymes: decreases; also recorded: inhibit
Strain V55 [19]
  Minimum inhibitory concentration, Swimming: 5 µg/mL (≈ 15.3 µM)
Strain R86 [20]
  Minimum inhibitory concentration, Growth: 25 µg/mL (≈ 76.7 µM)
Strain R130 [21]
  Minimum inhibitory concentration, Growth: 25 µg/mL (≈ 76.7 µM)
Proteus mirabilis [33]
  Effect on growth: did not affect
Erwinia carotovora [23]
  Effect on bacterial growth: without inhibiting; also recorded: no effect
Strain V55 [24]
  Minimum inhibitory concentration, Swarming: 5 µg/mL (≈ 15.3 µM)
Strain R130 [25]
  Minimum inhibitory concentration, Swarming: 5 µg/mL (≈ 15.3 µM)
Strain R12 [26]
  Minimum inhibitory concentration, Swarming: 5 µg/mL (≈ 15.3 µM)
Vibrio harveyi [27]
  Effect on bacterial growth: no effect
Pseudomonas aeruginosa [28]
  Effect on bacterial growth: no detectable effect
Strain V21 [29]
  Minimum inhibitory concentration, Swimming: 5 µg/mL (≈ 15.3 µM)
